The source of these data is ChEMBL document CHEMBL1269003, “Design and synthesis of tetrahydropyridothieno[2,3-d]pyrimidine scaffold based epidermal growth factor receptor (EGFR) kinase inhibitors: the role of side chain chirality and Michael acceptor group for maximal potency” (J Med Chem, 2010).

For data set [1], the system named is HCC827. Nature of the data set: Antitumor activity against human HCC827 cells xenografted in mouse assessed as reduction of tumor growth at 100 mg/kg, iv for 5 days a week measured after 2 weeks. More on the design: dose 100 mg/kg. Type of data set: functional, organism-based. On the technique in general: Xenograft models place foreign cells or tissue in a host animal.

A short description of data set [2]: Antiproliferative activity against human HCC827 cells by MTS assay. For orientation: Tetrazolium assays rely on reduction of a dye to a coloured formazan, in cell work by metabolically active cells.
Data set [3] has as its target Epidermal growth factor receptor (Homo sapiens, UniProt P00533, L858R/T790M).
In data set [4] the target is T1, Epidermal growth factor receptor (Homo sapiens, UniProt P00533).
T1 sequence (P00533 whole entry): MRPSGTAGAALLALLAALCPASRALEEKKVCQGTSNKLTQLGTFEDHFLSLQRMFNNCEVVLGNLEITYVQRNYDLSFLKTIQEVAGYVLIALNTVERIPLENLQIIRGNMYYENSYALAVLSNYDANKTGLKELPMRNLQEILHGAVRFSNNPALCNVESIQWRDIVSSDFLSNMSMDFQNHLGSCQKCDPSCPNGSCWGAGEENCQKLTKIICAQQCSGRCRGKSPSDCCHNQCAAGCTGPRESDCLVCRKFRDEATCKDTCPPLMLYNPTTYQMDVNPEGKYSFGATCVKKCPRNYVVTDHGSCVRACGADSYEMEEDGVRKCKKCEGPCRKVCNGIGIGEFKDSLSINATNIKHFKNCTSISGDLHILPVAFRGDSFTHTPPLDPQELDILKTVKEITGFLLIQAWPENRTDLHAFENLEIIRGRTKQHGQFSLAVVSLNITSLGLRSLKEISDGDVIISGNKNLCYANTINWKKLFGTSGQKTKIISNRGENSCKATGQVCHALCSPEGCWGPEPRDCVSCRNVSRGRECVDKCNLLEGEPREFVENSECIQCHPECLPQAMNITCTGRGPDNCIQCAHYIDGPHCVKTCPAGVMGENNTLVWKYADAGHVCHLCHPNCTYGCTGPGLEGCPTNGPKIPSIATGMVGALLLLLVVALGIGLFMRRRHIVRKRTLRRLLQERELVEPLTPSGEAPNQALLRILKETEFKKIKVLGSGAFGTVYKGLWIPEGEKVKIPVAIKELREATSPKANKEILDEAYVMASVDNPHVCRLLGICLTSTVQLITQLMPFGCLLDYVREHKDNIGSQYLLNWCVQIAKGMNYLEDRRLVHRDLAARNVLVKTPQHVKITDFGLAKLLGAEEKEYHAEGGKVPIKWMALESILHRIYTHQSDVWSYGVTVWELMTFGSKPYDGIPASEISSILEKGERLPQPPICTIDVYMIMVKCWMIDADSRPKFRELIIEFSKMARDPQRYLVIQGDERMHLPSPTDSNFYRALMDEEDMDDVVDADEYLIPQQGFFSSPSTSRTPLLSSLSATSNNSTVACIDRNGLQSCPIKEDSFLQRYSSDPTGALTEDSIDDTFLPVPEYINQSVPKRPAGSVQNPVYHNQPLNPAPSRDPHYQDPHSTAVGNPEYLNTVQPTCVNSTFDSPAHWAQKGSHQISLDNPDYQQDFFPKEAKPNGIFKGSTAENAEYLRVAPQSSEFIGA
The target of data set [5] is T1, Epidermal growth factor receptor. The following applies: 20 uM.
For data set [6], the system named is Epidermal growth factor receptor (Homo sapiens), P00533 [L858R,T790M]. The following applies: 10 uM.
Sequence of Epidermal growth factor receptor (Homo sapiens), P00533 [L858R,T790M] (P00533 whole entry T790M/L858R, looked up): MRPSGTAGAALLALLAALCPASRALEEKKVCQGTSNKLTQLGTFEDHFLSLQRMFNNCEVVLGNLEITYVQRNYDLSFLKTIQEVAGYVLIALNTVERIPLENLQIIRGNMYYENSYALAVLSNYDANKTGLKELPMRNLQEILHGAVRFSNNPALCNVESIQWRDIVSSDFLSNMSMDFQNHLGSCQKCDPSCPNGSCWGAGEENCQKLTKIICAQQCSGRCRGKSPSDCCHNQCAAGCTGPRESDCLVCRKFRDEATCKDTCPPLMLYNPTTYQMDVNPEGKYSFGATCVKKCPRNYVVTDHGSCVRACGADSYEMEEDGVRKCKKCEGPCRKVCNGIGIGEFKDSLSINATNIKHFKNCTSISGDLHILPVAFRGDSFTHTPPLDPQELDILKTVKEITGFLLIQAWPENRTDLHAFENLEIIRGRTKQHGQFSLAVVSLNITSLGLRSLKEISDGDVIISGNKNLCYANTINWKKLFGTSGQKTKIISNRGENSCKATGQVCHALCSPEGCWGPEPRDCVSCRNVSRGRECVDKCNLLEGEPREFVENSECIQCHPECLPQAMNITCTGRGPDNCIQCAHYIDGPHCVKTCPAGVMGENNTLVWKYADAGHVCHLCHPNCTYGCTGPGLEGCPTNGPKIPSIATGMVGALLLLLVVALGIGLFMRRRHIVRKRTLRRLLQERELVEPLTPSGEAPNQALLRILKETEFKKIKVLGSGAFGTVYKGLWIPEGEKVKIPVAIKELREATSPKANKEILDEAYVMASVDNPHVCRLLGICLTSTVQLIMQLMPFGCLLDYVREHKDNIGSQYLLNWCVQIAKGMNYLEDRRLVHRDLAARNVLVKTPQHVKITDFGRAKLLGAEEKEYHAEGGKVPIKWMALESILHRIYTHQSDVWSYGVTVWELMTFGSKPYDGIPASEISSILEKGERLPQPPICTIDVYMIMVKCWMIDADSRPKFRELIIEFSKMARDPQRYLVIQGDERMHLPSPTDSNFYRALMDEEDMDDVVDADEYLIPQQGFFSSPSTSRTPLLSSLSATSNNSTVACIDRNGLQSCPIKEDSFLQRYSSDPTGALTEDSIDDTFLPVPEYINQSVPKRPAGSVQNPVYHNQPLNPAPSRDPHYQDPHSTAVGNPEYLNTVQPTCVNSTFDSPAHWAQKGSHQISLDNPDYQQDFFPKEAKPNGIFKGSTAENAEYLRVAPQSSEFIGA
The subject of data set [7] is HCC827. Description: Antitumor activity against human HCC827 cells xenografted in mouse assessed as reduction of tumor growth at 5 to 15 mg/kg, iv for 5 days a week measured after 2 weeks. Type of data set: functional, organism-based.
The nature of data set [8]: AUC (0 to infinity) in Sprague-Dawley rat at 5 mg/kg, iv. The note with it: plasma. The format is ADME, organism-based. More on the design: time infinity, dose 5 mg/kg, route intravenous.
Data set [9] deals with Rattus norvegicus. Description: Half life in Sprague-Dawley rat at 5 mg/kg, iv. More on the design: dose 5 mg/kg, route intravenous. The following applies: in vivo. Type of data set: ADME, organism-based.
Data set [10] has as its target T1, Epidermal growth factor receptor. Nature of the data set: Inhibition of EGFR at 20 uM.

Calls of active or inactive are those of the source. No cut-off for these calls is given here.

The IC50 is the midpoint of a concentration-inhibition curve. A high value points to a need for much substance. The inhibition is the relative decrease from the control value, in per cent. As a reminder, the AUC(0-inf) is total exposure, with the tail of the curve extrapolated.

Sequence of Epidermal growth factor receptor (Homo sapiens, UniProt P00533, L858R/T790M) (P00533 25-1210 T790M/L858R limits assumed): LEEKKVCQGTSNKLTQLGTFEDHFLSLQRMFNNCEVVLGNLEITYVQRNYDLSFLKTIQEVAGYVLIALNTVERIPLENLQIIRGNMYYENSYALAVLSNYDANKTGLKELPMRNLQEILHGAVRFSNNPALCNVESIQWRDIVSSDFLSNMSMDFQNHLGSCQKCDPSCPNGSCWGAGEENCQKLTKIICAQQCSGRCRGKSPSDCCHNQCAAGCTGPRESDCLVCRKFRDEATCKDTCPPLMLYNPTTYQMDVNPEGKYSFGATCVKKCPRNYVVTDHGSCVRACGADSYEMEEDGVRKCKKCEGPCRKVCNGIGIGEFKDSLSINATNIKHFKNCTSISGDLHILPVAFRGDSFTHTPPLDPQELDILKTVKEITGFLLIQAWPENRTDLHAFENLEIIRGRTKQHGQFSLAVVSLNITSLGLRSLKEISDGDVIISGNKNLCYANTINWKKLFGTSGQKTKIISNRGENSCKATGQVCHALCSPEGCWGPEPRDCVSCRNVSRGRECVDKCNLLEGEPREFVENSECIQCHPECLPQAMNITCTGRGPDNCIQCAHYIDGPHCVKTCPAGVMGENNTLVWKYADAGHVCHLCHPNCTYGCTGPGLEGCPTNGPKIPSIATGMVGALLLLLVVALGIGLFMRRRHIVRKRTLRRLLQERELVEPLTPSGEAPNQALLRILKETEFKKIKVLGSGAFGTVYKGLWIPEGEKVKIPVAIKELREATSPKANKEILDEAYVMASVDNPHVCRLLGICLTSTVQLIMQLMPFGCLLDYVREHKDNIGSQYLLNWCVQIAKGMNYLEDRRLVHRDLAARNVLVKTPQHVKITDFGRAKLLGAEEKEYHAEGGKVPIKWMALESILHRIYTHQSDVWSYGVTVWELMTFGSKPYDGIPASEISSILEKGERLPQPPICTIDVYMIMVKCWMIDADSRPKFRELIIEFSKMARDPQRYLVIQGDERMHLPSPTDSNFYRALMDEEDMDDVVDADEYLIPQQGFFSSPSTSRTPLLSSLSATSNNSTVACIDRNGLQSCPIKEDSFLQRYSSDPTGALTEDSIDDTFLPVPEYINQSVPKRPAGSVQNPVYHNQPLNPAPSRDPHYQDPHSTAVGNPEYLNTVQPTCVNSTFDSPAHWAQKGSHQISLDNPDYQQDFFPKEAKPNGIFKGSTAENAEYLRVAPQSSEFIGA

With `COc1cc2ncnc(Nc3ccc(F)c(Cl)c3)c2cc1OCCCN1CCOCC1`, in data set [1], the result was Active.
In the case of `O=C(/C=C/CN1CCOCC1)N1CCc2c(sc3ncnc(NC(CO)c4ccccc4)c23)C1` (single isomer, unassigned), the IC50 in data set [2] was 0.004 µM; in data set [3], 1.4 µM; in [4], 0.021 µM.
Consider `c1ccc(CNc2ncnc3sc4c(c23)CCCC4)cc1`, for which the 50% inhibitory concentration (IC50) in [2] is above 10 µM. In addition, the inhibition is 76.9% in data set [5] and below 50% in data set [6].
As to `CN(C)C/C=C/C(=O)N1CCc2c(sc3ncnc(N[C@H](CO)c4ccccc4)c23)C1`, the result in data set [7] was Active. In data set [8], this molecule came in with an AUC(0-inf) of 337 ng·h/mL. For the same molecule, the t1/2 in data set [9] is 1.4 h. In addition, the IC50 amounted to 0.002 µM in data set [2], 0.305 µM in data set [3] and 0.07 µM in data set [4].
As for `C=CC(=O)N1CCc2c(sc3ncnc(N[C@H](CO)c4ccccc4)c23)C1`, the IC50 in data set [2] stood at 0.003 µM; in [3] it was 0.1 µM; in data set [4], 0.008 µM.
In data set [10], `OC[C@@H](Nc1ncnc2sc3c(c12)CCNC3)c1ccccc1` had an IC50 above 20 µM. In [6], this molecule gave an inhibition below 50%.
In data set [5], `c1ccc(CCNc2ncnc3sc4c(c23)CCCC4)cc1` yielded an inhibition of 44.3%.
`OC[C@H](Nc1ncnc2sc3c(c12)CCCC3)c1ccccc1` came in with an IC50 in [10] above 20 µM.
On to `CC#CC(=O)N1CCc2c(sc3ncnc(N[C@H](CO)c4ccccc4)c23)C1`, for which the figures for the IC50 in [3] and in [4] were above 10 µM and 1.27 µM, respectively. Besides, in data set [6], the inhibition was below 50%.
In data set [2], `OC[C@@H](Nc1ncnc2oc(-c3ccccc3)c(-c3ccccc3)c12)c1ccccc1` showed an IC50 of 0.518 µM.
For the molecule `CN1CCN(C/C=C/C(=O)N2CCc3c(sc4ncnc(N[C@H](CO)c5ccccc5)c34)C2)CC1`, the IC50 in data set [2] was 0.038 µM; in [4], 0.089 µM. In data set [6], the inhibition is below 50%.
`C[C@@H](Nc1ncnc2sc3c(c12)CCCC3)c1ccccc1` registered an IC50 in [4] above 3.24 µM.
Turning to `C[C@@H](Nc1ncnc2sc3c(c12)CCN(C(=O)/C=C/CN(C)C)C3)c1ccccc1`, the IC50 is 0.002 µM in data set [2], 0.596 µM in [3] and 0.012 µM in [4].
The molecule `CCC(=O)N1CCc2c(sc3ncnc(N[C@H](CO)c4ccccc4)c23)C1` came in with an IC50 in [10] above 20 µM. Further, the inhibition in data set [6] is below 50%.
As for `CCN(CC)C/C=C/C(=O)N1CCc2c(sc3ncnc(NC(CO)c4ccccc4)c23)C1` (single isomer, unassigned), the IC50 is 0.008 µM in data set [2], 0.93 µM in [3] and 0.009 µM in [4].
In the case of `OC[C@@H](Nc1ncnc2sc3c(c12)CCCC3)c1ccccc1`, the half-maximal inhibitory concentration (IC50) in [2] was 0.198 µM; in data set [4], 0.72 µM. The inhibition in data set [6] was below 50%.
`c1ccc(CNc2ncnc3sc4c(c23)CCC4)cc1` yielded an inhibition in data set [5] of 69.1%.
As to `OC[C@@H](Nc1ncnc2sc3c(c12)CCC3)c1ccccc1`, the IC50 in data set [2] was determined as 0.324 µM; in [4] it was 1.09 µM.
In data set [4], `C=CC(=O)N1CCc2c(sc3ncnc(N[C@@H](CO)c4ccccc4)c23)C1` came in with an IC50 of 3.06 µM. This molecule also showed an inhibition in data set [6] below 50%.
In data set [10], `OCCNc1ncnc2sc3c(c12)CCCC3` displayed an IC50 above 20 µM.
As to `C=CC(=O)N1CCc2c(sc3ncnc(N[C@H](CC)c4ccccc4)c23)C1`, the results for the IC50 in data set [2], in data set [3] and in data set [4] were 0.024 µM, 2.2 µM and 0.046 µM, respectively.
Turning to `C=CS(=O)(=O)N1CCc2c(sc3ncnc(N[C@H](CO)c4ccccc4)c23)C1`, the IC50 was determined as 0.273 µM in data set [2], 2.48 µM in [3] and 0.091 µM in data set [4].
For `C=CC(=O)N1CCc2c(sc3ncnc(N[C@H](C)c4ccccc4)c23)C1`, in that order: 0.019 µM, 0.739 µM and 0.02 µM.
Molecule `O=C(/C=C/c1ccccc1)N1CCc2c(sc3ncnc(N[C@H](CO)c4ccccc4)c23)C1` showed an IC50 in [4] of 3.5 µM. For the same molecule, the inhibition in data set [6] was below 50%.
`Fc1ccc(CNc2ncnc3sc4c(c23)CCCC4)cc1` had an inhibition in data set [5] of 52.7%.
As to `CN(C)C/C=C/C(=O)N1CCc2c(sc3ncnc(NCCO)c23)C1`, in data set [4], half-maximal inhibition (IC50) was put at 4.88 µM. In [6], this molecule returned an inhibition below 50%.
Turning to `CN(C)C/C=C/C(=O)N1CCc2c(sc3ncnc(NC(CO)Cc4ccccc4)c23)C1` (single isomer, unassigned), the IC50 in data set [2] is 0.032 µM; in data set [3] it was 4.11 µM; in data set [4], 0.149 µM.
For the molecule `COc1ccc(CNc2ncnc3sc4c(c23)CCCC4)cc1`, the inhibition in data set [5] came out at 1.1%.
As for `CN(C)C/C=C/C(=O)N1CCc2c(sc3ncnc(N[C@@H](CO)c4ccccc4)c23)C1`, in data set [10], the IC50 is above 20 µM. The molecule further had an inhibition in data set [6] below 50%.
